Tests used:
[1] = Sprague-Dawley, rat, in vivo, 4 weeks
[2] = Dose escalation 3+3 design, DLT / maximum tolerated dose in patients; format: in vivo, human; conditions: through Cohort 7
Excerpt: A minimum of 3 patients is enrolled in each dose level cohort. If a patient experiences a DLT during Cycle 1, then the cohort will be expanded to 6 patients. If ≥2 patients out of 3 to 6 patients experience one or more dose-limiting toxicities (DLT(s)) during Cycle 1, dose escalation will end, and a lower dose level cohort will be expanded for determination of the maximum tolerated dose (MTD). If no additional patients experience a DLT in the expanded cohort, the dose level will be escalated. Decisions of dose escalation and the dose level of the next cohort will be determined. A patient will be evaluable in the dose escalation phase if the patient either experienced a DLT during Cycle 1 or received ≥80% of planned doses of study drug in Cycle 1. After Dose Escalation Cohort 6, a review of safety, PK and PD data will determine future escalation cohorts. No more than 50% increases in a total dose given in the first cycle will be allowed from the previous cohort.
The MTD will be defined as the highest dose level at which no more than 1 of 6 DLT-evaluable patients experiences a DLT(s) in Cycle 1 during dose escalation. An additional, lower, intermediate dose level may be explored to determine a recommended phase 2 dose (RP2D). The RP2D will be the MTD or a biologically active or maximally feasible dose lower than the MTD. Different RP2Ds may be determined for solid tumor and DTGCT patients. […]

[3] = molecular target: unphosphorylated c-KIT kinase (Homo sapiens (Human), UniProt P10721); test: c-KIT kinase assay, coupled pyruvate kinase/lactate dehydrogenase; format: biochemical; conditions: enzymatic assay, 1 mM ATP
[4] = test system: advanced solid tumors; test: Antitumor activity in patients with advanced solid tumors, RECIST 1.1; format: in vivo, human
Excerpt: The study enrolls patients with solid tumors or manifestations of cancer with known contribution of macrophages or phagocytes, i.e., tumors known to have expression of the receptor colony-stimulating factor 1 receptor (CSF1R) or its ligands, Colony stimulating factor-1 (CSF1) or interleukin (IL)-34, confirmed by the literature or prior testing. […]. In addition, tumor-associated manifestations featuring macrophage or osteoclast pathophysiology including bone metastases and ascites or effusions that typically contain high levels of macrophages will be enrolled. […].
The study consists of a screening period that is conducted within 28 days prior to the first dose of study drug, a treatment period of 28-day cycles, an End of Treatment visit, and Follow-up Safety visits at both 30 days and 75 days (±5 days) after the last dose of study drug. Patients will be eligible to receive study drug for up to 2 years until tumor progression, occurrence of unacceptable toxicity, or withdrawal of consent, or until commercial supply of the drug is available. […] Patients may continue receiving treatment after tumor progression. […]
(§1) Tumor response will be assessed by tumor type using the following criteria: for solid tumors and DTGCT: RECIST, Version 1.1; and for bone-only disease: a new lesion(s) identified by bone scan will be considered as disease progression.

[5] = in vivo; conditions: Sprague-Dawley, rat
[6] = dog, 13-week
[7] = test system: diffuse-type tenosynovial giant cell tumor; test: Tumor response and symptoms in DTGCT patients (case studies), RECIST version 1.1; format: in vivo, human
Excerpt: as §1
Additional descriptions of case studies of patients with DTGCT treated within this study are provided below: […]

[8] = human, in vivo

unphosphorylated c-KIT kinase, sequence (P10721 other isoform, or with tags, fused parts or gaps): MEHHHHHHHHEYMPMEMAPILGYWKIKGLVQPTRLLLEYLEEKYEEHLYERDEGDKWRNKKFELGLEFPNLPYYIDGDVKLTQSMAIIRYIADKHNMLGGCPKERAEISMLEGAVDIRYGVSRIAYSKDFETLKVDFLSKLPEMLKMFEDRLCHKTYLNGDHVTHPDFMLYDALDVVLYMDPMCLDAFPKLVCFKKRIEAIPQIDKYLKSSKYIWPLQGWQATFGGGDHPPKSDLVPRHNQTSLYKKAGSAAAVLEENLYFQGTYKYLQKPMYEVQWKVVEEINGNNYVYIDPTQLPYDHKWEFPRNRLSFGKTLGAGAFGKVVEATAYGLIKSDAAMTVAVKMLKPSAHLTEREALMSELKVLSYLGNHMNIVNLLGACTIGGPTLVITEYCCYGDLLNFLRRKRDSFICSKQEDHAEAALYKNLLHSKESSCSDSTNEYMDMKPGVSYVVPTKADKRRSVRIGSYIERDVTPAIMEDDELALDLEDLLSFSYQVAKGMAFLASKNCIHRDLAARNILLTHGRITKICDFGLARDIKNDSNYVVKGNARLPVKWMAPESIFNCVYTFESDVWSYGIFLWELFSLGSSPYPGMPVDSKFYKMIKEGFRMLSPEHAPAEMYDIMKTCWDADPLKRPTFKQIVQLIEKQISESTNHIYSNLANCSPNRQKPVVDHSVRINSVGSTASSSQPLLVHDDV

## Cc1nc(-c2cnc(NC(C)C)n(C)c2=O)ccc1Oc1ccnc(-c2cnn(C)c2)c1 [Compound 1, 2-(isopropylamino)-3-methyl-5-(6-methyl-5-((2-(1-methyl-1H-pyrazol-4-yl)pyridin-4-yl)oxy)pyridin-2-yl)pyrimidin-4(3H)-one]
[1]
  STD10 (Severely Toxic Dose in 10% of animals): 15 mg/kg/day
[2]
  MTD: has not been reached
[3]
  IC50: 864 nM
[4]; a patient with thymoma
  duration of stable disease: 6 months
[4]; advanced solid tumors, dose escalation
  patients with a best response of stable disease: 5 patients
[5]
  NOAEL at 13 weeks: 1.88 mg/kg/day
[6]
  microscopic liver changes: without corresponding microscopic liver changes
[6]; 8 mg/kg/day
  increases in AST, GLDH and creatine kinase activities: minimal or mild
[7]; DTGCT Patient 1, Cohort 5
  symptoms: Improved pain and swelling and effusion were nearly resolved in the first cycle
[7]; DTGCT Patient 1, Cohort 5 (30 mg twice weekly maintenance), C3D1
  decrease in tumor size from baseline: 48%
[7]; DTGCT Patient 1, Cohort 5, C5D1
  decrease in tumor size from baseline: 61%
[7]; DTGCT Patient 1, Cohort 5, C7D1
  decrease in tumor size from baseline: 75%
[7]; DTGCT Patient 1, Cohort 5, C10D1
  decrease in tumor size from baseline: 84%
[7]; DTGCT Patient 2, Cohort 5
  symptoms: pain improvement, increased range of motion, and less stiffness
[7]; DTGCT Patient 2, Cohort 5, C3D1
  decrease in tumor size from baseline: 25%
[7]; DTGCT Patient 3, Cohort 5
  symptoms: rapid symptom improvement, with less pain and swelling and improved range of motion after the first cycle
[7]; DTGCT Patient 3, Cohort 5, C3D1
  decrease in tumor size from baseline: 24%
[7]; DTGCT patient
  tumor response: up to 84%
[8]
  Grade 3/4 elevated AST/ALT events, elevated bilirubin levels or hepatic AEs: did not exhibit
